Experimental data taken from patent publication US6755971B2, “Microbiological removal of bromine salts from fluid streams” (AKZO Nobel N.V., priority 1999, dated 2004).

How the values were obtained:
[1] = system: micro-organisms immobilised on pumice particles; test: Bacterial growth inhibition test with sulfite; assay type: cell-based; details: 5 days
Experimental: (§1) Batch experiments were conducted in 110 ml gas-tight glass vessels, which were filled with 10 ml of mineral medium. The gas-phase and the medium in the vessels were flushed with nitrogen. Hydrogen gas was supplied by injection of a known amount using a gas-tight syringe (up to 150 kPa). Vessels were incubated at 30° C. in a shaking water bath. Micro-organisms immobilised on pumice particles were withdrawn from the gas-lift reactor whenever steady state conditions were reached and washed twice with phosphate buffer (20 mM) before use. These immobilised micro-organisms were used to inoculate the cultures. Various salt concentrations in the batch cultures were obtained by adding various amounts of sodium chloride. Sodium sulfite was added to cultures in various amounts from a freshly prepared stock solution. The test vessels for the growth experiments were inoculated by injecting 5 ml of effluent from the reactor. The micro-organisms in the effluent were washed three times with phosphate buffer (20 mM) and concentrated to 0.5 ml by centrifugation (10,000 g, 15 min). 4.4 Analytical Procedures
Besides chlorate and […] the waste water also contains small amounts of hypochlorite. Since hypochlorite is a biocide, removal of this compound before biological treatment is necessary. Hypochlorite can be removed instantly from the waste water using sulfite as reductant. This procedure could be used prior to the biological treatment. To examine whether sulfite is toxic to micro-organisms immobilised on the pumice particles, a toxicity test was performed. Growth was determined after 5 days, and was compared to a control culture without sulfite. The growth was determined by measuring the formation of chloride.

mixed culture = test: Growth experiments with various carbon sources; assay type: cell-based; details: 24 mM substrate, 10 mM chlorate, 30° C., turbidity; note: key: ++: Extensive growth; +: Growth (based on turbidity of culture); +/−: Slight increase in turbidity
Experimental: Growth of the mixed culture with different carbon and energy sources was determined in 100 ml serum bottles with gas-tight caps filled up to 75% of their volume with mineral salts medium and 24 mM of the substrate and incubated at 30° C. Chlorate was added at a concentration of 10 mM. Growth was followed by determination of the turbidity (visually). The cultures were made anoxic by being flushed with nitrogen gas for approximately 5 minutes. Growth was followed for a maximum period of 2 months.

[2] = system: chlorate-reducing mixed culture; details: up to a concentration of 12 mM, separate experiments
Experimental: These cultures were inoculated with 1 ml of an exponentially growing culture. […] These cultures were anaerobically incubated at 30° C. in a water bath. The turbidity was measured using a Nephelometer (Hack Ratio XR, Loveland, USA). The turbidity was plotted against time for each of the concentrations and the control. The growth was derived from the slope of the regression line in a plot of In OD 660 versus time. The percentage inhibition of the growth at each concentration was calculated. […] Confidence limits were calculated on the basis of Fieller's theorem. All computations were performed using a statistical software program (SAS, Cary, N.C., USA).
Growth was followed for approximately 8 hours.

[3] = system: micro-organisms immobilised on pumice particles; test: Influence of high salt concentration on microbial activity (batch); assay type: cell-based
Experimental: as §1
The effect of increased salt concentration in the reactor was investigated in batch experiments. The activity of the micro-organisms immobilised on pumice particles in the batch experiment decreased only slightly with increasing salinity, as indicated in FIG. 19. […]

Work on `O=S([O-])[O-].[Na+].[Na+]` [Sulfite, sodium sulfite] yielded a Growth inhibition ([1]; sulfite 15 mg/l) of 4%, a Growth inhibition ([1]; sulfite 45 mg/l) of 0% and a Growth inhibition ([1]; sulfite 135 mg/l) of 6%. The Growth inhibition ([1]; sulfite 405 mg/l) was 7%.
`CC(=O)O` [acetate] was tested, and the Growth (mixed culture) was “++”.
With `[O-][Cl+2]([O-])O` [chlorate] the “toxicity to the mixed culture” value [2] was “not toxic”.
For `CCO` [ethanol], the Growth (mixed culture) was “++”.
In the case of `NCC(=O)O` [glycine], the Growth (mixed culture) is reported as “+/−”.
In the case of `CC(O)C(=O)O` (centres unmarked) [lactate], the Growth (mixed culture) is reported as “+”.
In the case of `O=C(O)CC(O)C(=O)O` (centres unmarked) [malate], the Growth (mixed culture) is reported as “++”.
With `CCC(=O)O` [propionate] the Growth (mixed culture) was “++”.
In the case of `[Cl-].[Na+]` [sodium chloride], the “effects of increased salinity on activity” value ([3]; 40 g/l) is reported as “substantial” and the “activity (chlorate reduction) relative to the maximum” value ([3]; concentration of 30 μl sodium chloride, unacclimatised micro-organisms) is reported as “more than 80%”.
In the case of `O=C(O)CCC(=O)O` [succinate], the Growth (mixed culture) is reported as “++”.
